Key:
[1] = 2,2-diphenyl-1-picrylhydrazyl (DPPH) assay; conditions: DPPH in ethanol, 515 nm, 25° C.
Protocol: The unpaired electron results in a strong absorption band at 515 nm, and the solution has a dark-violet colour. In the presence of a free-radical scavenger, the electron is paired, the absorption disappears, and the decoloration proceeds stoichiometrically taking into account the electrons taken up. The absorbance is measured in a photometer. The anti-free-radical property of the substance to be tested is determined by measuring the concentration at which 50% of the 2,2-diphenyl-1-picrylhydrazyl employed has reacted with the free-radical scavenger. This concentration is expressed as EC50, a value which should be regarded as a property of the substance under the given measurement conditions. The substance investigated is compared with a standard (for example tocopherol). The EC50 value here is a measure of the capacity of the respective compound to scavenge free radicals. The lower the EC50 value, the higher the capacity to scavenge free radicals. […] A further important aspect for the action of the antioxidants is the time in which this EC50 value is achieved. This time, measured in minutes, gives the TEC50 value, which allows a conclusion to be drawn on the rate at which these antioxidants scavenge free radicals. […] The unpaired electron results in a strong absorption band at 515 nm, and the solution has a dark-violet colour. In the presence of a free-radical scavenger, the electron is paired, the absorption disappears, and the decoloration proceeds stoichiometrically taking into account the electrons taken up. The absorbance is measured in a photometer. The anti-free-radical property of the substance to be tested is determined by measuring the concentration at which 50% of the 2,2-diphenyl-1-picrylhydrazyl employed have reacted with the free-radical scavenger. This concentration is expressed as EC50, a value which should be regarded as a substance property under the given measurement conditions. The substance investigated is compared with a standard (for example tocopherol). The EC50 value here is a measure of the capacity of the respective compound to scavenge free radicals. The lower the EC50 value, the higher the capacity to scavenge free radicals. […] Various concentrations of the compound to be tested are added to aliquots of this solution. The absorbance is measured in each case at 515 nm, 25° C. and 1 cm. […] The lower this value, the higher the corresponding free-radical-reducing activity. The reaction time needed to achieve this value is indicated in the value TEC50 (in minutes).

[2] = Oxidation in UV light in the presence of further antioxidants: beta-carotene emulsions on irradiation; assay type: physicochemical; conditions: emulsion with 0.5% by weight beta-carotene and 4% by weight compound vs emulsion without compound, UV irradiation for 90 min, n=4
[3] = Oxidation in UV light: change in the UV spectrum on irradiation; assay type: physicochemical; conditions: xenon lamp
Protocol: The curves stand for the unirradiated substance (exposed to 0 kJ/m^2), after irradiation for 15 min (exposure to 86 kJ/m^2), after irradiation for 65 min (exposure to 373 kJ/m^2), after irradiation for 235 min (exposure to 1349 kJ/m^2) and after irradiation for 405 min (exposure to 2325 kJ/m^2).

SMILES	Stability TEC50 (reaction time needed to achieve EC50) [1] [min]	Effect on beta-carotene degradation (absorption at Emax 440-480 nm) in emulsion [2]	Emax of the UV-A absorption formed on irradiation ([3]; after UV irradiation, 290-400 nm)	Change in UV absorption in the UV-A region on irradiation ([3]; after irradiation for 65 min (373 kJ/m^2), 95.69 W/m^2 in the range 290-400 nm, increases further on longer irradiation)
O=C1O[C@H]([C@@H](O)CO)C(O)=C1O [Ascorbic acid]	<5	–	–	–
CCCCC(CC)COC(=O)C(Cc1cc(OC)c(O)c(OC)c1)C(=O)OCC(CC)CCCC (stereo not drawn) [Hydroxy dimethoxybenzyl malonate, di-2-ethylhexyl 4-hydroxy-3,5-dimethoxy-benzylmalonate]	600	stabilises the beta-carotene	320-340 nm	significantly increased UV absorption
CCCCC(CC)COC(=O)C(=Cc1cc(OC)c(O)c(OC)c1)C(=O)OCC(CC)CCCC (stereo not drawn) [Hydroxy dimethoxybenzylidene malonate, Di-2-ethylhexyl (4-hydroxy-3,5-dimethoxybenzylidene)malonate]	1200	–	–	–

Other lines, results leading:

Stability TEC50 (reaction time needed to achieve EC50) [1] [min]	Effect on beta-carotene degradation (absorption at Emax 440-480 nm) in emulsion [2]	Emax of the UV-A absorption formed on irradiation ([3]; after UV irradiation, 290-400 nm)	Change in UV absorption in the UV-A region on irradiation ([3]; after irradiation for 65 min (373 kJ/m^2), 95.69 W/m^2 in the range 290-400 nm, increases further on longer irradiation)	SMILES
1200	–	–	–	O=C1OC(C(O)CO)C(OP(=O)(O)O)=C1O (stereo not drawn) [Ascorbyl (2-O) phosphate]
30	–	–	–	Cc1c(C)c2c(c(C)c1O)CC[C@@](C)(CCC[C@H](C)CCC[C@H](C)CCCC(C)C)O2 [alpha-Tocopherol]
600	–	–	–	CC(=O)Oc1c(C)c(C)c2c(c1C)CCC(C)(CCC[C@H](C)CCC[C@H](C)CCCC(C)C)O2 (stereo partly drawn) [alpha-Tocopheryl acetate]

Source: patent publication US8106233B2, “Antioxidant compounds” (Merck Patent GmbH, priority 2005, dated 2012)
